# The source made the active and inactive calls. For most assays here, no stated cut-off is given here; in the data, actives have a measured IC50 and inactives only a lower limit.
# Assays:
# [1] = system: HT-1080; experiment: HT1080 cell viability loss – fluorescence readout (AID 620); assay type: functional, cell-based; conditions: Homo sapiens
# [2] = system: Jurkat; experiment: blockers of NF-kB activation in T cells – Jurkat, luciferase reporter, luminescence, B- and T-cell, dose response (AID 489004); assay type: functional, cell-based; conditions: Homo sapiens;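 further: NF-kB luciferase reporter Jurkat cells stimulated with PMA plus ionomycin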
# [3] = molecular target: T1, Caspase-3 (Homo sapiens, UniProt P42574); assay type: functional
# T1 sequence (P42574 whole entry): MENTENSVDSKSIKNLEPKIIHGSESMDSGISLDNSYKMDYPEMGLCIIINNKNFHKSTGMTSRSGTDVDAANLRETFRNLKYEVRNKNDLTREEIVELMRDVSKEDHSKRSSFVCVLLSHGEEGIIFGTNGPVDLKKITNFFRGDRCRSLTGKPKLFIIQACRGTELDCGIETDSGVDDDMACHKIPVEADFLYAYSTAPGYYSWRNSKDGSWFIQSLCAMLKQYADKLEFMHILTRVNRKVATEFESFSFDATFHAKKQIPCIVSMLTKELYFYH
# [4] = molecular target: T2, Sentrin-specific protease 6 (Homo sapiens, UniProt Q9GZR1); assay type: functional
# T2 sequence (Q9GZR1 whole entry): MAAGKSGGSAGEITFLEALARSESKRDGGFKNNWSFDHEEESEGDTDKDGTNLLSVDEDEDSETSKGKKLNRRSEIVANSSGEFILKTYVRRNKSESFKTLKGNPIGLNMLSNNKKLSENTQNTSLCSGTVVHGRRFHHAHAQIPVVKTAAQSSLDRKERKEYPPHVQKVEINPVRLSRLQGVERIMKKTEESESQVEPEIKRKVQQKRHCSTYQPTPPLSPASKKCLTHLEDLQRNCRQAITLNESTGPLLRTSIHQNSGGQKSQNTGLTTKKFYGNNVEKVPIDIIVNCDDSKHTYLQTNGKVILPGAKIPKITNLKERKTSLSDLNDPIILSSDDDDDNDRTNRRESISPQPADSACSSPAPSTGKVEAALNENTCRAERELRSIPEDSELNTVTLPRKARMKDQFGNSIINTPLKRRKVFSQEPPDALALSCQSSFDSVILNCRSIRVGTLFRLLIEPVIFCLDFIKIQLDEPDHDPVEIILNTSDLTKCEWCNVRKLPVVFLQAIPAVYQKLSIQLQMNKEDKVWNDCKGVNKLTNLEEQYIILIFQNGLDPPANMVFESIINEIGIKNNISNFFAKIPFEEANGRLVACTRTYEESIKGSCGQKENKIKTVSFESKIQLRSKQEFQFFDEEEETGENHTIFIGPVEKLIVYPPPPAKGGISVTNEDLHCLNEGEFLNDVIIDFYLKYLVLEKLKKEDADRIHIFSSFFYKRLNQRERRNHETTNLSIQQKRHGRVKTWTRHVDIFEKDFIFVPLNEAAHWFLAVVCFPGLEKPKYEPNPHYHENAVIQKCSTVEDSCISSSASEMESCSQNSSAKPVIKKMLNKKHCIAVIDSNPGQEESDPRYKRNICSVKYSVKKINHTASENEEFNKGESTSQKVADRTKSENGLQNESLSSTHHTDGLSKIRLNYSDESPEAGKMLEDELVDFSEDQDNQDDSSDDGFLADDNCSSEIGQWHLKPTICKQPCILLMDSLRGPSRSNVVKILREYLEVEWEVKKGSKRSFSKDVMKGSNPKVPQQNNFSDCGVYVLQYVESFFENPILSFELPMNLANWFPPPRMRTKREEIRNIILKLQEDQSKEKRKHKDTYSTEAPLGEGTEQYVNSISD
# [5] = molecular target: T3, Sentrin-specific protease 8 (Homo sapiens, UniProt Q96LD8); experiment: inhibition of human SENP8 cleavage activity – biochemical, luminescence, SAR follow-up (AID 504501); assay type: functional
# T3 sequence (Q96LD8 whole entry): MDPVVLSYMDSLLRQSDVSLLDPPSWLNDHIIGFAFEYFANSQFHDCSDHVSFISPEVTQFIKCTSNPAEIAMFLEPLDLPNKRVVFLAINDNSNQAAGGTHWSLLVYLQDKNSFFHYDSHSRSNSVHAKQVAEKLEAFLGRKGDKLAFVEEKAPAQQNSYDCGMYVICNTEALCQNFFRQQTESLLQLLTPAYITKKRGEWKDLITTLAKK
# [6] = molecular target: T1, Caspase-3; experiment: SAR Analysis of small molecule inhibitors of Sentrin-specific proteases (SENPs) using a Caspase-3 Selectivity assay. [Related pubchem assays (depositor defined):AID2540, AID2599, AID434973, AID489001]; assay type: functional
# [7] = molecular target: T2, Sentrin-specific protease 6; experiment: SAR Analysis of small molecule inhibitors of Sentrin-specific protease 6 (SENP6) using a Luminescent assay. [Related pubchem assays (depositor defined):AID2582, AID2599]; assay type: functional
# [8] = system: A-375; experiment: proliferation inhibition in MITF-low A375 cells – cell-based, cherry-pick samples, set 2, counter-screen for MITF modulator project, dose response (AID 540335); assay type: functional; conditions: Homo sapiens
# [9] = molecular target: T4, Protein RecA (Mycobacterium tuberculosis, UniProt P9WHJ3); experiment: Fluorescence Cell-Free Homogeneous Dose Retest to Identify Inhibitors of RecA-Intein Splicing Activity. [Related pubchem assays (depositor defined):AID2097, AID2223, AID489010, AID492950]; assay type: functional
# T4 sequence (P9WHJ3 whole entry): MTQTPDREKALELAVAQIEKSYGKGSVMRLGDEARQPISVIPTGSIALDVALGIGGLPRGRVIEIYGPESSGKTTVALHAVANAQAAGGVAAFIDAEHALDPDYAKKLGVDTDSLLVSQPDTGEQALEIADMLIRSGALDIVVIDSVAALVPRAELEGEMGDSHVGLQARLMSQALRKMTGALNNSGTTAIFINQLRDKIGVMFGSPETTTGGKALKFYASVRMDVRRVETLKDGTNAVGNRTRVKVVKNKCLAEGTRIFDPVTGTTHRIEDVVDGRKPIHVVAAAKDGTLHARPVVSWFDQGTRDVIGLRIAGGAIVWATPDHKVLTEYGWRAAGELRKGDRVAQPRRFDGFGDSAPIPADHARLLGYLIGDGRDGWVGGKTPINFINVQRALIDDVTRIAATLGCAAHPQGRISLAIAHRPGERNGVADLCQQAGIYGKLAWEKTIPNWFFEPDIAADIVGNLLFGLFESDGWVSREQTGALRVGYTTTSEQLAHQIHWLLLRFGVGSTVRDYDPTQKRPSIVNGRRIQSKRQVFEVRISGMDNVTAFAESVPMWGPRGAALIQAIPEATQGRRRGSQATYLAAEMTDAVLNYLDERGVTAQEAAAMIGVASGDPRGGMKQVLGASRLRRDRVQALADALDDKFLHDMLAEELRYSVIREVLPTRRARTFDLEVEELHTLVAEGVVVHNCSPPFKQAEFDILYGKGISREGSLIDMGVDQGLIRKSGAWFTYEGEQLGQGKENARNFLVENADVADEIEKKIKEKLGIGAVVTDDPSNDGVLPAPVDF
Compound,EC50 [1],IC50 [2],IC50 [3],IC50 [4],IC50 [5],IC50 [6],IC50 [7],AC50 [8],EC50 [9]
N#Cc1c(NC(=O)CSc2nc[nH]n2)sc2c1CCCCC2,> 50 µM (not active),< 0.16 µM (active),45.2 µM (active),4 µM (active),12.7 µM (active),40.4 µM (active),8.05 µM (active),> 35 µM (active),–
COc1ccc(C(N)c2nccc3cc(OC)c(OC)cc23)cc1OC (configuration not stated),–,–,–,–,> 99 µM (inactive),> 99 µM (inactive),> 99 µM (inactive),–,> 380 µM (inactive)
